{"source": "patent US20260345584A1", "about": "“METHODS AND PHARMACEUTICAL COMPOSITIONS FOR TREATING CHEMOTHERAPY-INDUCED PERIPHERAL NEUROPATHY WITH EG5 INHIBITORS” (UNIVERSITY OF MIAMI, priority 2023, published 2026)", "key": {"axonal microtubules": {"test_system": "axonal microtubules", "assay": "Axonal detyrosination (GluTub) along axon segments in distal caudal fin", "type": "in vivo, zebrafish", "settings": "EMD534085 alone, wildtype, 96 hr", "protocol": "Larval fish were transferred into […] glass vials and fixed in 4% paraformaldehyde (PFA)/1× Phosphate-buffered saline (PBS) for 1.5 hr at room temperature, with gentle rocking. Following a 5-minute incubation in 1×PBS+0.1% Tween-20 (PBST), zebrafish were permeabilized in 1×PBS+0.1% Triton X-100 for 10-30 min. Larval fish were transferred into 2 ml reaction tubes and incubated in blocking buffer (1×PBST+5% BSA) for 30 min at room temperature, with rocking. Larval fish were further incubated overnight in antibody solution (Millipore Sigma, Cat. No. AB3201, 1:300 rabbit anti-GluTub; Sigma, Cat No. T6793, 1:500 mouse anti-acetylated tubulin) in blocking buffer at 4 °C, on a rotator. The next morning, larval fish were transferred into 6-well plates and washed 4×15 min in 1×PBST at room temperature, with rocking. […]\nAxon branch number quantifications were performed by drawing a 50 μm line across the dorsal, medial, and ventral caudal fin edge region at a distance of 100 μm parallel to the fin edge (which was determined to be the most reliable region to quantify distal branch numbers). Axons traversing this line were counted and averaged per treatment group. Axonal fluorescence measurements were taken using the Imaris Spots function by manually placing spots along the axon and using the fluorescence intensity profile measurements MatLab tool."}, "skin gene expression": {"test_system": "skin gene expression", "assay": "Mouse skin RNAseq", "type": "in vivo", "settings": "mice, 2 mg/kg paclitaxel i.p. x4", "protocol": "The RNAseq data set was published in Cirrincione et al. (2022, Data 7: 72). Following differential gene expression analysis (FDR<0.01) comparing paclitaxel-treated to vehicle control animals (n=4), identified genes were queried in gProfiler and grouped by their molecular function. Using normalized gene counts, Kif genes were analyzed for their expression and plotted over time. […] Kif11 was queried in STRING to identify associated networks and interacting proteins compared to the RNAseq data set and differentially expressed genes were graphed in Prism 9.\nMolecular mechanisms underlying paclitaxel-induced microtubule fasciculation were then investigated. […] Peripheral neuropathy was correlated with these times points using von Frey behavioral testing, which determined that peak neuropathy was present at day 7 (D7). This identified several biological categories during peak neuropathy with the largest clusters being implicated in extracellular matrix organization (e.g. “ECM”, “collagen-containing ECM”, “collagen trimer”) and cell cycle regulation (e.g. “outer kinetochore”, “kinesin complex”, condensed chromosome, centromeric region”, “mitotic spindle”, “microtubules”), consistent with our findings in zebrafish. Interactome analysis using STRING (Szklarczyk et al., 2021, Nucl. Acids Res 49: D605-D612) to predict protein association networks further identified major clusters involved in cell cycle regulation, which contained various kinesins, microtubule and nucleus regulators, as well as one cluster annotated as “disulfide bond”, consistent with a role for oxidative signal activation (Leonard et al., 2011, Current opinion in chemical biology 15: 88-102) (shown in FIG. 3D)."}, "Eg5": {"test_system": "Eg5", "assay": "Eg5 immunofluorescence in zebrafish caudal fin", "type": "in vivo", "settings": "22 μM paclitaxel, 96 hr", "protocol": "The stock solution was divided into 20-30 μl aliquots and stored at −20 °C until use (maximal 6 months). Immediately prior to use, paclitaxel was diluted in Ringer's solution and added to dechorionated larval zebrafish. The larval fish were placed individually or in small groups into wells of a 12-well plate containing the treatment solutions. The control group was 0.05% DMSO. Plates were incubated at 28.5 °C and protected from light. Treatment lengths are indicated in the Drawings, Description of the Drawings, and Examples where appropriate. […] EMD534085, Eg5 inhibitor (MedChemExpress, Cat. No. HY-15000) was diluted in 100% DMSO to make a 10 mM stock solution and stored at −20 °C. […] The solutions were exchanged every 48 hr.\nLarval fish were transferred into […] glass vials and fixed in 4% paraformaldehyde (PFA)/1× Phosphate-buffered saline (PBS) for 1.5 hr at room temperature, with gentle rocking. Following a 5-minute incubation in 1×PBS+0.1% Tween-20 (PBST), zebrafish were permeabilized in 1×PBS+0.1% Triton X-100 for 10-30 min. Larval fish were transferred into 2 ml reaction tubes and incubated in blocking buffer (1×PBST+5% BSA) for 30 min at room temperature, with rocking. […]"}, "[1]": {"test_system": "microtubule acetylation in keratinocytes", "assay": "Keratinocyte microtubule acetylation (K40)", "type": "in vivo, zebrafish", "settings": "22 μM paclitaxel, 96 hr, with and without EMD534085", "protocol": "Larval fish were transferred into […] glass vials and fixed in 4% paraformaldehyde (PFA)/1× Phosphate-buffered saline (PBS) for 1.5 hr at room temperature, with gentle rocking. Following a 5-minute incubation in 1×PBS+0.1% Tween-20 (PBST), zebrafish were permeabilized in 1×PBS+0.1% Triton X-100 for 10-30 min. Larval fish were transferred into 2 ml reaction tubes and incubated in blocking buffer (1×PBST+5% BSA) for 30 min at room temperature, with rocking. Larval fish were further incubated overnight in antibody solution (Millipore Sigma, Cat. No. AB3201, 1:300 rabbit anti-GluTub; Sigma, Cat No. T6793, 1:500 mouse anti-acetylated tubulin) in blocking buffer at 4 °C, on a rotator. The next morning, larval fish were transferred into 6-well plates and washed 4×15 min in 1×PBST at room temperature, with rocking. This was followed by incubation in secondary antibody (goat anti-rabbit Cy5, Abcam, Cat. No. ab97077; goat anti-mouse Cy3, Abcam, Cat. No. ab97035) and 1:10,000 Hoechst 33342 (ThermoFisher Scientific, Cat. No. 62249, 20 mM solution) in blocking buffer for 1 hr at room temperature, with rocking. Fish were covered to avoid bleaching. […]"}}}
{"smiles": "CN(C)CCNC(=O)NC[C@H]1CC[C@@H]2[C@H](O1)c1cc(C(F)(F)F)ccc1N[C@H]2c1ccccc1", "note": "[EMD534085]", "values": [{"measurement": "normalized GluTub intensity ratios (axon)", "setting": "axonal microtubules", "value": "2.13±0.13"}]}
{"smiles": "CC(=O)O[C@H]1C(=O)[C@@]2(C)[C@H]([C@H](OC(=O)c3ccccc3)[C@]3(O)C[C@H](OC(=O)[C@H](O)[C@@H](NC(=O)c4ccccc4)c4ccccc4)C(C)=C1C3(C)C)[C@]1(OC(C)=O)CO[C@@H]1C[C@@H]2O", "note": "[paclitaxel]", "values": [{"measurement": "expression of Cdk1, Aurka, Aurkb and Kif11", "setting": "skin gene expression", "value": "upregulated during peak neuropathy"}, {"measurement": "expression of Cyba and Cybb", "setting": "skin gene expression", "value": "upregulated at D23"}, {"measurement": "expression of checkpoint regulators Plk1, Cdc20, Ndc80, Bub1c, Dlgap5", "setting": "skin gene expression", "value": "co-upregulation from D7 onward"}, {"measurement": "Eg5 localization/induction", "setting": "Eg5", "value": "promoted Eg5 puncta formation"}, {"measurement": "keratinocyte microtubule acetylation", "setting": "[1]", "value": "an increase in keratinocyte microtubule acetylation after 96 hr paclitaxel treatment with and without EMD534085"}]}
